Test results reported in patent publication US20240366586A1, “METHODS AND AGENTS FOR MODULATING THE IMMUNE RESPONSE” (The Regents of the University of California, priority 2021, published 2024).
Where a name gives a salt, the structure may show the parent alone.

Tested on: Il12b
Test: Dual-fluorescence reporter macrophage cell line screen, lipopolysaccharide-stimulated: chromatinized Il12b-eGFP versus minimal Il12b-DsRed reporter
Type: cell-based
Settings: additional compounds of Formulas (I)-(IV), same screening procedure
Description: We hypothesized that molecules that inhibit the “chromatinized” Il12b reporter but not the “minimal” Il12b reporter would offer a greater degree of Il12b inhibition selectivity.
We generated a dual-fluorescence reporter macrophage cell line having both a [Il12b]-[eGFP] chromatin-based construct and a [Il12b]-[DSred] plasmid vector. FIG. 3. We then stimulated an […] response in the cell line using lipopolysaccharide, an activator of Il12b expression, and tested a library of over 60,000 known and unknown (i.e., undescribed in the literature) small-molecule compounds.
Additional compounds in Formulas (I)-(IV) were screened following the same procedure as described above, with eGFP fluorescence as a readout for inhibition of IL12b.

Compound | inhibition of IL12b, eGFP fluorescence as readout
COc1cc(OC)cc(C(=O)N(Cc2ccc(F)cc2)Cc2cc3c(C)ccc(C)c3[nH]c2=O)c1 [Compound I-2, N-[(5,8-dimethyl-2-oxo-1H-quinolin-3-yl)methyl]-N-[(4-fluorophenyl)methyl]-3,5-dimethoxybenzamide] | Positive activity
CCOc1ccc2[nH]c(=O)c(CN(Cc3ccco3)C(=O)c3ccc(C(C)(C)C)cc3)cc2c1 [Compound I-3, 4-tert-butyl-N-[(6-ethoxy-2-oxo-1H-quinolin-3-yl)methyl]-N-(furan-2-ylmethyl)benzamide] | Positive activity
Cc1ccc(NC(=O)N(Cc2ccco2)Cc2cc3cc4c(cc3[nH]c2=O)OCCO4)cc1 [Compound I-4, 1-(furan-2-ylmethyl)-3-(4-methylphenyl)-1-[(7-oxo-3,6-dihydro-2H-[1,4]dioxino[2,3-g]quinolin-8-yl)methyl]urea] | Positive activity
CCOc1ccc2[nH]c(=O)c(CN(Cc3ccco3)C(=O)Nc3ccc(OC)cc3)cc2c1 [Compound I-5, 1-[(6-ethoxy-2-oxo-1H-quinolin-3-yl)methyl]-1-(furan-2-ylmethyl)-3-(4-methoxyphenyl)urea] | Positive activity
CCOc1ccc(NC(=S)N(Cc2ccco2)Cc2cc3ccc(C)cc3[nH]c2=O)cc1 [Compound I-6, 3-(4-ethoxyphenyl)-1-(furan-2-ylmethyl)-1-[(7-methyl-2-oxo-1H-quinolin-3-yl)methyl]thiourea] | Positive activity
Cc1ccc(NC(=O)N(Cc2ccco2)Cc2cc3cc4c(cc3[nH]c2=O)OCO4)cc1 [Compound I-7, 1-(furan-2-ylmethyl)-3-(4-methylphenyl)-1-[(6-oxo-5H-[1,3]dioxolo[4,5-g]quinolin-7-yl)methyl]urea] | Positive activity
O=C(NCc1ccccc1)N(Cc1ccco1)Cc1cc2cc3c(cc2[nH]c1=O)OCO3 [Compound I-8, 3-benzyl-1-(furan-2-ylmethyl)-1-[(6-oxo-5H-[1,3]dioxolo[4,5-g]quinolin-7-yl)methyl]urea] | Positive activity
CCc1ccc2[nH]c(=O)c(CN(Cc3ccco3)C(=S)NCc3ccccc3)cc2c1 [Compound I-9, 3-benzyl-1-[(6-ethyl-2-oxo-1H-quinolin-3-yl)methyl]-1-(furan-2-ylmethyl)thiourea] | Positive activity
Cc1ccc(C)c2[nH]c(=O)c(CN(Cc3ccco3)C(=S)NCc3ccco3)cc12 [Compound I-10, 1-[(5,8-dimethyl-2-oxo-1H-quinolin-3-yl)methyl]-1,3-bis(furan-2-ylmethyl)thiourea] | Positive activity
CCOc1ccc2[nH]c(=O)c(CN(Cc3ccco3)C(=O)c3cccs3)cc2c1 [Compound I-11, N-[(6-ethoxy-2-oxo-1H-quinolin-3-yl)methyl]-N-(furan-2-ylmethyl)thiophene-2-carboxamide] | Positive activity
O=C(CCc1ccccc1)N/N=C\c1ccc([N+](=O)[O-])s1 [II-2, N—[(Z)-(5-nitrothiophen-2-yl)methylideneamino]-3-phenylpropanamide] | Positive activity
O=C(N/N=C\c1ccc([N+](=O)[O-])o1)c1ccc(-c2ccccc2)cc1 [II-3, N—[(Z)-(5-nitrofuran-2-yl)methylideneamino]-4-phenylbenzamide] | Positive activity
C/C(=N\NC(=O)c1cccc(Cl)c1)c1ccc([N+](=O)[O-])o1 [II-4, 3-chloro-N-[(E)-1-(5-nitrofuran-2-yl)ethylideneamino]benzamide] | Positive activity
O=C(Cc1ccc(Cl)cc1)N/N=C\c1ccc([N+](=O)[O-])o1 [II-5, 2-(4-chlorophenyl)-N—[(Z)-(5-nitrofuran-2-yl)methylideneamino]acetamide] | Positive activity
O=C(N/N=C\c1ccc([N+](=O)[O-])o1)c1cccc2ccccc12 [II-6, N—[(Z)-(5-nitrofuran-2-yl)methylideneamino]naphthalene-1-carboxamide] | Positive activity
O=c1cccc2n1C[C@H]1C[C@@H]2CN(Cc2ccc3ccc4cccc5ccc2c3c45)C1 [III-2, (1R,9S)-11-(pyren-1-ylmethyl)-7,11-diazatricyclo[7.3.1.0^2,7]trideca-2,4-dien-6-one] | Positive activity
COc1ccc(Br)cc1/C=C/C(=O)c1ccc2c(c1)OCCO2 [IV-2, (E)-3-(5-bromo-2-methoxyphenyl)-1-(2,3-dihydro-1,4-benzodioxin-6-yl)prop-2-en-1-one] | Positive activity
COc1ccc(OC)c(/C=C/C(=O)c2ccc(C)cc2)c1 [IV-3, (E)-3-(2,5-dimethoxyphenyl)-1-(4-methylphenyl)prop-2-en-1-one] | Positive activity
COc1ccc(C(=O)/C=C/c2cccc(Cl)c2)cc1OC [IV-4, (E)-3-(3-chlorophenyl)-1-(3,4-dimethoxyphenyl)prop-2-en-1-one] | Positive activity
CCOc1ccc(C(=O)/C=C/c2cccc(OC)c2OC)cc1 [IV-5, (E)-3-(2,3-dimethoxyphenyl)-1-(4-ethoxyphenyl)prop-2-en-1-one] | Positive activity

Same assay, conditions: lipopolysaccharide-stimulated dual-fluorescence reporter macrophage cell line

Compound | selective inhibition of the chromatinized Il12b reporter (eGFP) but not the minimal reporter (DsRed)
C/C(=C\c1cccc2ccccc12)[N+](=O)[O-] [1-(2-nitro-1-propen-1-yl)naphthalene] | selective inhibitors of chromatinized Il12b
CCOc1ccc(/C=C/[N+](=O)[O-])cc1 [1-ethoxy-4-(2-nitrovinyl)benzene] | selective inhibitors of chromatinized Il12b
O=C(/C(=C/c1cccnc1)c1nc2ccccc2[nH]1)c1ccccc1 [2-(1H-benzimidazol-2-yl)-1-phenyl-3-(3-pyridinyl)-2-propen-1-one] | selective inhibitors of chromatinized Il12b
NC(=O)c1ccccc1/N=C/c1ccc([N+](=O)[O-])s1 [2-{[(5-nitro-2-thienyl)methylene]amino}benzamide] | selective inhibitors of chromatinized Il12b
CC[n+]1c2ccccc2nc2ccccc21 [5-ethylphenazin-5-ium ethyl sulfate] | selective inhibitors of chromatinized Il12b
O=c1cc(C(Cl)(Cl)Cl)oc2ccc(Cl)cc12 [6-chloro-2-(trichloromethyl)-4H-chromen-4-one] | selective inhibitors of chromatinized Il12b
CC(=O)Nc1ccc(Br)cc1-c1ccccc1 [N-(5-bromo-2-biphenylyl)acetamide] | selective inhibitors of chromatinized Il12b
Cc1cc2ncn(N=Cc3ccc([N+](=O)[O-])o3)c2cc1C [UK6, 5,6-dimethyl-N-[(5-nitro-2-furyl)methylene]-1H-benzimidazol-1-amine] | selective inhibitors of chromatinized Il12b
CCOC(=O)C(=Cc1ccc2c(c1)C(=O)CC2=O)C(=O)OCC [diethyl [(1,3-dioxo-2,3-dihydro-1H-inden-5-yl)methylene]malonate] | selective inhibitors of chromatinized Il12b

Tested on: Il12b
Test: RNA-Seq / ATAC-Seq of lipopolysaccharide-induced genes in treated macrophages
Type: cell-based
Settings: RNA-Seq and ATAC-Seq analyses, macrophages
Description: Our screening experiment identified as compounds that […]. Using ATAC-Seq and RNA-Seq analyses, we confirmed that the screen indeed identified hits that work by affecting chromatin, and confirmed that β adrenergic agonists, (and in particular β2 adrenergic agonists) are indeed exquisitely selective inhibitors of Il12b gene expression.
The inhibition of Il12b by β agonists occurs upon stimulation of macrophages with other inflammatory stimuli, including CpG DNA, double stranded RNA, and imiquimod. We confirmed that the cAMP/PKA pathway, but not the exchange factor directly activated by cAMP (EPAC) pathway, was largely responsible for mediating the Il12b suppression by 0-agonists.
FIG. 7B depicts a fold change box plot in samples treated with UK17 (3-fluoro-N′-[(5-nitro-2-thienyl)methylene]benzohydrazide (CID #6895129)), classifying lipopolysaccharide-induced genes by gene-regulation cluster as previously described in Tong A. et al., A Stringent Systems Approach Uncovers Gene-Specific Mechanisms Regulating Inflammation, Cell 165 165-179 (2016). Box plots indicate the distribution of fold change values for each cluster. Red lines are drawn at 1 and −1, indicating a 2-fold up or down-regulation of genes. Il12b is labeled in red.

Compound | selective inhibition of Il12b gene expression
CCCC(=O)Nc1ncnc2c1ncn2[C@@H]1O[C@@H]2COP(=O)(O)O[C@H]2[C@H]1OC(=O)CCC [dibutyryl cyclic AMP, reference compound] | selectively inhibit IL12b expression

Same assay, conditions: genes with RPKM>4 and FC>10, ranked by fold change (Max RPKM with/without compound)

Compound | rank of Il12b among the most strongly inhibited lipopolysaccharide-induced genes
Cc1cc2ncn(N=Cc3ccc([N+](=O)[O-])o3)c2cc1C [UK6, 5,6-dimethyl-N-[(5-nitro-2-furyl)methylene]-1H-benzimidazol-1-amine] | ≤ 20
